Experimental data published in the METLIN SMRT retention time set (Domingo-Almenara et al. 2019).

Assay: gradient 5% acetonitrile 3 min, to 50% in 2 min, to 85% in 15 min, held 3 min, 100 µL/min
Conditions: column: Zorbax Extend-C18 2.1 x 50 mm; eluents: water / acetonitrile, 0.1% formic acid
How it was run: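 Over 3 months, pure standards in mixtures of ~100 molecules were run by HPLC coupled to a quadrupole time-of-flight mass spectrometer in positive and negative ionization mode. The column was a Zorbax Extend-C18 (2.1 × 50 mm, 1.8 μm) at 100 μL/min, eluted with water and acetonitrile each holding 0.1% formic acid, with 40 μL dead and 900 μL dwell volumes. Retention time was determined from adduct peaks chosen by software and checked manually.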

Compound	RP-LC retention time [s]
Cc1ccc(Nc2nc(-c3cc(C)c(C)cc3C)cs2)nc1	1010
CC(=O)Nc1ccc(CC(=O)NC(C(=O)N2CCCc3ccccc32)c2ccccc2)cc1 (stereo unspecified)	803
CC(=O)N1CCCSc2ccc(S(=O)(=O)N3CCN(c4cccc(Cl)c4)CC3)cc21	1050
COCCc1noc(C2CN(S(=O)(=O)c3cccnc3)C2)n1	669
CC(C)Oc1ccc(C(=O)N2CCC3(CC2)C(=O)N(C)c2ccccc23)cc1	930
COC(=O)c1cc(OCC(=O)Nc2ccccc2)c2cc(OC)c(OC)cc2n1	711
CCCN(C)S(=O)(=O)c1cc(-c2nc(C(C)(C)C)cs2)cs1	1330
CCn1cc(-c2ccc(C)cc2)cc1C(=O)NCCN(C)C	680
O=C(CCCc1ccccc1)N1C[C@H]2CNC(=O)[C@]23CCCC[C@@H]13	770
CC(=O)N1CCc2sc(S(=O)(=O)N3CCN(c4cccc(C)c4C)CC3)cc2C1	1030
COc1ccc(CCNC(=O)Cn2c(=O)n(CC3CCCO3)c(=O)c3ccccc32)cc1OC (stereo unspecified)	732
O=C(c1cc(Sc2cccc(Cl)c2)nc2ccccc12)N1CCN(c2ccccn2)CC1	789
Cc1cccc(N2CCN(S(=O)(=O)c3cc(-c4cc(C(F)(F)F)on4)cs3)CC2)c1C	1420
CC(C)NC(=O)C1CCCN(c2nc3ncn(CC(=O)NC4CCCCC4)c(=O)c3s2)C1 (stereo unspecified)	666
Cc1ccccc1OCc1ccc(-c2nc(C#N)c(NCCN(C)C)o2)o1	707
CCc1ccc(CNC(=O)c2cn(C)nc2S(=O)(=O)N2CCSCC2)cc1	961
CCN1CCCCc2cc(C(=O)NCCN3CCCCC3C)sc21 (stereo unspecified)	698
O=c1c2cc3c(cc2nc(SCc2nc(-c4cccc(F)c4)no2)n1Cc1ccccc1)OCO3	1250
Cc1cc(N2CCOCC2)nc(N2CCN(C(=O)Cc3ccc(F)cc3)CC2)n1	566
CCC(C)NC(=O)C1CCCN(c2ccc(-c3ccc(C)c(C)c3)nn2)C1 (stereo unspecified)	716
COc1ccc(-c2nc3cc(C)ccn3c2Nc2ccc3c(c2)OCCO3)cc1	714
COCCNC(=O)C(C)Sc1ccc(=O)n(-c2ccc(C)c(Cl)c2)n1 (stereo unspecified)	731

Compound	RP-LC retention time [s]
CC(=O)Nc1nsc(N2CCC(C(=O)N3CCN(c4cccc(Cl)c4)CC3)CC2)n1	731
O=C(NCCc1ccccc1)N1CCC(OC2CCN(Cc3ccccc3)CC2)CC1	652
COc1ccc2c(c1)C1(CCN(S(=O)(=O)c3ccccc3)C1)C(=O)N2 (stereo unspecified)	771
O=C(Nc1ccccn1)C1(c2cccs2)CCOCC1	745
O=C(Cc1csc2nc(-c3cccc(Br)c3)cn12)Nc1ccccc1F	958
O=C(NCCCN1CCOCC1)c1c(OCC2CC2)cc(=O)n2c1CCCCC2	568
Cc1cccc(Nc2nc(C)c(C(=O)N3CCN(c4ccccc4)CC3)s2)n1	884
CC1(C(=O)NCc2ccc3c(c2)OCO3)CCN(C(=O)c2ccccc2C(F)(F)F)CC1	822
CC(C)Cn1c(=O)c(N2CCN(C(=O)c3ccco3)CC2)nc2ccncc21	555
COc1ccc(N2CCN(c3cc(SCC(=O)NCC4CCCO4)ncn3)CC2)cc1 (stereo unspecified)	713
CCc1ccc(CN2C(=O)c3ccccc3C2C(=O)NCCCOC)cc1 (stereo unspecified)	819
CCn1nccc1C(=O)N1c2ccccc2CC1c1nnc(C2CC2)o1 (stereo unspecified)	755
CN1C(=O)c2cccc(NC(=O)c3ccc(S(=O)(=O)N4CCOCC4)cc3)c2C1=O	813
COC(=O)c1cc2n(n1)CC(C)(C(=O)NC1CCCC1)N(c1ccccc1C)C2=O (stereo unspecified)	801
CCn1nccc1C(=O)NCCn1c(=O)n(Cc2ccc(F)cc2)c2cccnc21	729
Cc1nn(-c2nc(-c3ccc(F)cc3)cs2)c(C)c1CC(=O)Nc1ccccc1F	1140
COc1ccc(OC)c(C2NC(=O)NC(C)=C2C(=O)OCC(F)(F)C(F)(F)F)c1 (stereo unspecified)	801
Cc1ccc2[nH]cc(CCNC(=O)CSCc3nnc(C(=O)Nc4ccc(F)cc4)s3)c2c1	918
O=C(NCc1ccccc1)c1c(O)c2cccnc2n(-c2ccccc2)c1=O	1160
Cn1cccc1-c1cc2n(n1)CCCN2C(=O)CCC(=O)N1CCc2ccccc2C1	809
Cn1nccc1-c1cccc(-c2noc(COc3ccc(Cl)cc3)n2)c1	1120
CN1c2cc(C(=O)NC3CCCCC3)ccc2C(=O)N2CCCCC21 (stereo unspecified)	824

Compound	RP-LC retention time [s]
CCCC(=O)Nc1ccc2c(c1)CN(C(=O)Cc1ccc(C)cc1)C(C(=O)N(C)C)C2 (stereo unspecified)	748
Cc1nc(Nc2ccc(NC(=O)COc3ccc(Cl)cc3)cc2)cc(-n2ccnc2)n1	646
Cn1cnnc1SCCNC(=O)CCc1cccc(Oc2ccc(F)cc2)c1	697
COc1ccc(CNc2ncc(C(=O)O)c(C(C)C)n2)cc1OC	863
O=C(CCCc1c[nH]c2ccccc12)N1CCN2CCS(=O)(=O)N(C3CC3)C(=O)C2C1 (stereo unspecified)	824
CCOCCCNC(=O)C1CCN(c2ncnc3c2oc2ccccc23)CC1	633
O=C(c1ccccc1)N1CCc2ccc(NS(=O)(=O)c3cccs3)cc2C1	759
O=S(=O)(Nc1ccccc1)c1cccnc1Nc1ccc(F)cc1	1020
CCC1CN2C=NC(N3CCN(C(=O)c4ccccc4)CC3)=CC2=N1 (stereo unspecified)	611
COc1ccccc1NC(=O)N1CCc2nc(-c3ccc(Cl)cc3)ncc2C1	948
CCCNC(=O)C1CCCN(c2ccc(SCC(=O)NCc3ccccc3)nn2)C1 (stereo unspecified)	648
CC1=C(c2ccc(Cl)cc2)S(=O)(=O)N=C1N1CCC(C(=O)NC(C)C)CC1	779
CCOCc1nc(C2CCCN2S(=O)(=O)c2cccc3nsnc23)no1 (stereo unspecified)	836
O=C(c1ccc2c(c1)OCO2)N1CCN(Cc2nnnn2-c2ccc(F)c(F)c2)CC1	746
CCCNC(=O)C1CCCN(c2ccc(SCC(=O)Nc3cccc(Br)c3)nn2)C1 (stereo unspecified)	730
O=C(CC1CCCCC1)Nc1cccc(-c2nnc3n2CCCC3)c1	731
COCC(=O)NCC12CCC=C1N(C)C(=O)CC2 (stereo unspecified)	618
Cc1cc(F)ccc1S(=O)(=O)NCC(c1ccsc1)N1CCOCC1 (stereo unspecified)	572
O=C(Nc1ccc(CN2CCCCC2)cc1)C1CCCN(c2ncnc3c2nc2n3CCCCC2)C1 (stereo unspecified)	1050
Cc1cccc2c(C(=O)O)cc(N3CCN(C)CC3)nc12	596
O=c1c2cc3c(cc2nc(SCc2nc(-c4ccc(Cl)cc4)no2)n1CC1CCCO1)OCO3 (stereo unspecified)	1230
COc1ccc(-n2c(N)cc(=O)nc2SCC(=O)NC2CCCCC2)cc1	601
